{"source": "patent US20100167989A1", "about": "“ISOPROPOXYPHENYLMETHYL INHIBITORS OF SGLT2” (AUSPEX PHARMACEUTICALS, INC., priority 2008, published 2010)", "origin": "cited, not measured here", "key": {"mice": {"test_system": "mice", "details": "orally administered"}, "rats": {"test_system": "rats", "details": "orally administered"}}, "data": [{"smiles": "CCOC(=O)OC[C@H]1O[C@@H](Oc2nn(C(C)C)c(C)c2Cc2ccc(OC(C)C)cc2)[C@H](O)[C@@H](O)[C@@H]1O", "note": "[remogliflozin etabonate, 4-[(4-isopropoxyphenyl)-methyl]-1-isopropyl-5-methyl-1H-pyrazol-3-yl-D-glucopyranoside]", "values": [{"measurement": "urinary glucose excretion", "setting": "mice", "value": "increased urinary glucose excretion in a dose-dependent manner"}, {"measurement": "urinary glucose excretion", "setting": "rats", "value": "increased urinary glucose excretion in a dose-dependent manner"}]}]}
